How the values were obtained:
BE(2)-C cells [1] = assay: Flow cytometric analysis of LysoTracker DND-99 staining (lysosomal accumulation); type: cell-based, human; conditions: 24 h treatment
Experimental: Six days after siRNA transfection or 24 h after treatment with HDAC or lysosomal inhibitors, cells were stained for 1 h with 50 nM LysoTracker® Red DND-99 in medium under standard cell culture conditions. Cells were washed with ice-cold RPMI w/o phenol-red and detached using Trypsin/EDTA for 3 minutes at 37 °C. Cells were centrifuged, resuspended in RPMI w/o phenol red and LysoTracker® Red fluorescence was quantified on a BD FACSCanto II platform using the PE filter setting.

BE(2)-C cells [2] = assay: Flow cytometric quantification of intracellular doxorubicin accumulation, BE(2)-C; type: cell-based, human; conditions: 100 ng/ml doxorubicin, 24 h co-treatment
Experimental: For flow cytometric quantification of intracellular doxorubicin after HDAC6/10 inhibition, BE(2)-C, SK-N-AS, IMR-32, HAP1 wild type and HDAC10 knockout cells were seeded in 6-well dishes at a density of 1.5 ∗ 10^5 cells/well (BE(2)-C and SK-N-AS, HAP1) and 3 ∗ 10^5 cells/well (IMR-32). Cells were treated with 25 ng/ml, 50 ng/ml, 100 ng/ml or 1 µg/ml doxorubicin, respectively, for 3–48 h (see respective figure legend). Where indicated, cells were co-treated with HDAC6/10 or lysosomal inhibitors. In case of co-treatment with vacuolin-1, vacuolin-1 was directly added to cells under doxorubicin treatment 1 h or 24 h prior to analysis. Flow cytometric quantification of intracellular doxorubicin after HDAC6, HDAC10 or P-glycoprotein knockdown in BE(2)-C cells was performed 5 days (P-glycoprotein) or 6 days (HDAC6/10) after transfection with siRNA. To that end, cells were seeded 3–4 days after transfection into 6-well dishes at 1.5 ∗ 10^5 cells per well and treated with 100 ng/ml doxorubicin +/− HDAC6/10 and lysosomal inhibitors for the last 24 h. After doxorubicin treatment, BE(2)-C, SK-N-AS, IMR-32 and HAP1 cells were washed with ice-cold RPMI w/o phenol-red and detached using Trypsin/EDTA for 3 minutes at 37 °C. Cells were centrifuged, resuspended in RPMI w/o phenol red and doxorubicin fluorescence was quantified on a BD FACSCanto II platform using the PE filter setting.

HDAC10 = molecular target: T1, HDAC10 (Homo sapiens, UniProt Q969S8); assay: In-cell target engagement (NanoBRET) assay, NanoLuc-HDAC10; type: binding
T1 construct: NanoLuc®-HDAC10 FL Fusion Vector; host or cells: HeLa cells, stably transfected
T1 sequence (Q969S8 1-669): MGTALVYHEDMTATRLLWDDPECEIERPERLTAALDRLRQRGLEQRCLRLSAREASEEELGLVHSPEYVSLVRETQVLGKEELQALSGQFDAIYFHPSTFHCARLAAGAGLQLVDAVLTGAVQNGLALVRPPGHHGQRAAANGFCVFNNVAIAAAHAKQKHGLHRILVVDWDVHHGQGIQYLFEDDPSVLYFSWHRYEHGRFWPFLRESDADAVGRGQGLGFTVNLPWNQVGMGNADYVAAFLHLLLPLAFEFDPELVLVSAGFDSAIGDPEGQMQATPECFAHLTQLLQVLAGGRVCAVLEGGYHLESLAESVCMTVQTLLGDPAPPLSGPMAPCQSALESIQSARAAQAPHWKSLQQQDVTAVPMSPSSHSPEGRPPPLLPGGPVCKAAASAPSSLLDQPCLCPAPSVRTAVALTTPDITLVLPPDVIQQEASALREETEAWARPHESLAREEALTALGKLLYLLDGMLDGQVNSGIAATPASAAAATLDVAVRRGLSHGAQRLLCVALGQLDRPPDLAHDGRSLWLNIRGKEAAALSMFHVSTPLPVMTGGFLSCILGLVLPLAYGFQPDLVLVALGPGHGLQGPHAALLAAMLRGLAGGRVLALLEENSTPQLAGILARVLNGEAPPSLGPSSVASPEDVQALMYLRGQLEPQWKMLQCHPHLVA
From the text: We next investigated if accumulation of lysosomes was also affected by inhibition of HDAC6 and HDAC10, respectively. […] Since no bona fide downstream target protein of HDAC10 has been described to date, we performed an in-cell target engagement (NanoBRET) assay that measures competitive displacement of a fluorescently-labeled tracer from NanoLuc® Luciferase coupled HDAC10 enzyme. […] To exclude that lysosomal accumulation after treatment with HDAC6/10 inhibitors was caused by off-target inhibition of class I HDACs, we treated BE(2)-C cells with 1 mM class I HDAC inhibitor valproic acid (VPA).
(§1) HeLa cells, stabily transfected with NanoBRET plasmids NanoLuc®-HDAC6 FL Fusion Vector and NanoLuc®-HDAC10 FL Fusion Vector (Promega, Madison, WI, USA) were seeded at 20.000 cells/well in white 96 well plates. Without further incubation, tracer (0.3 µM) and drugs were added in separate steps and plates were placed in a tissue culture incubator for 2 h. For NanoBRET quantification, plates were put at room temperature for 10 minutes. Nanoglow substrate, diluted in OptiMEM without phenol red, was added and measured within 10 minutes in an OPTIMA plate reader (460 nm emission for donor and 610LP filter for acceptor). The BRET signal was calculated by the ratio of acceptor signal and donor signal.

HDAC6 [3] = assay: Western blot analysis of tubulin K40 acetylation as a marker for HDAC6 inhibition; type: cell-based, human; conditions: 24 h treatment
Experimental: Western blot analysis was performed as previously described. The following antibodies were used: anti-HDAC6 (sc-11420, Santa Cruz), anti-HDAC10 (H3413, Sigma), anti-acetylated histone H3 (06-911, Merck Millipore), anti-histone H3 (9715, Cell Signaling Technology, Cambridge UK), anti-LAMP-1 (H4A3, DHSB, Iowa City, IA, USA), anti-LAMP-2 (H4B4; Santa Cruz Biotechnology), anti-acetylated tubulin (6–11B-1; Sigma), anti-tubulin (2148, Cell Signaling Technology), anti P-glycoprotein (13978 S, Cell Signaling Technology) and anti-β-actin (clone AC-15; Sigma).

HDAC6 [4] = molecular target: T2, HDAC6 (Homo sapiens, UniProt Q9UBN7); assay: In-cell target engagement (NanoBRET) assay, NanoLuc-HDAC6; type: binding; conditions: HeLa cells stably transfected with NanoLuc-HDAC6, 2 h
T2 sequence (Q9UBN7 1-1215): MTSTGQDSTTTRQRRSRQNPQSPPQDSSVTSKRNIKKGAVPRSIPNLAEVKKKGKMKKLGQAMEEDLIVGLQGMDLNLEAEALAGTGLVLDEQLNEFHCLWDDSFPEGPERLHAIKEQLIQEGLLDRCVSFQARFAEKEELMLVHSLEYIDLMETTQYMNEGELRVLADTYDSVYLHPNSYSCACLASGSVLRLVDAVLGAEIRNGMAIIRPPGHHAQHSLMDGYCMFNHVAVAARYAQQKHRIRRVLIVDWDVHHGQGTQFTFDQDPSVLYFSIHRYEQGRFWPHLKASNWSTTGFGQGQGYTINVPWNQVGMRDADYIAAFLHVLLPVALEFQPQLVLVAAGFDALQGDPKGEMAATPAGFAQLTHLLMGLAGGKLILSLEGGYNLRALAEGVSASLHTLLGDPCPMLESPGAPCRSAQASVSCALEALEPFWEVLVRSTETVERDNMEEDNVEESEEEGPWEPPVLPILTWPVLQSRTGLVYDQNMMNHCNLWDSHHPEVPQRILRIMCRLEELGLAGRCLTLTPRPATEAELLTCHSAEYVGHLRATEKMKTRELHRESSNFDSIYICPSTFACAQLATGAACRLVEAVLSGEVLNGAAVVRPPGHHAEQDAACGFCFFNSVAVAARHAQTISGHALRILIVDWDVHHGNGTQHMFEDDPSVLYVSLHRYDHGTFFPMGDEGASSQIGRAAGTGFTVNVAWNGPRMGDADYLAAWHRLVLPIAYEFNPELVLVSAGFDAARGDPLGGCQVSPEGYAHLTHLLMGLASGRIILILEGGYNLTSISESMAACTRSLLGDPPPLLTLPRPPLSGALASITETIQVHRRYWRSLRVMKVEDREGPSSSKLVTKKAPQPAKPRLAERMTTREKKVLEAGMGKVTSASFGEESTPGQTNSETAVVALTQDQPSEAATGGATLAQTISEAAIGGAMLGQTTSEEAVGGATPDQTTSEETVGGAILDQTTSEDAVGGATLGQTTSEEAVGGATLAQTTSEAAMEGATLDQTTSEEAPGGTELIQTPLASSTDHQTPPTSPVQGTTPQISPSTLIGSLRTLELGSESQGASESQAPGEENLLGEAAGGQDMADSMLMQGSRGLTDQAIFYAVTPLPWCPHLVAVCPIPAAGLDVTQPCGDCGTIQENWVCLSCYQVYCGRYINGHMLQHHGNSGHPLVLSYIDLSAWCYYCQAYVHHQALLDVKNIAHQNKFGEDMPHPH
Experimental: as §1

Compound: CN1C(=O)C2CN(Cc3c2c2ccccc2n3Cc2ccc(C(=O)NO)cc2)C1=O (stereo not shown) [Marbostat-100]
- concentrations at which LysoTracker staining is increased (BE(2)-C cells [1]): above 1 µM
- EC50 (BE(2)-C cells [1]; read-out: LysoTracker staining EC50): 6600 nM
- concentrations at which intracellular doxorubicin levels are increased (BE(2)-C cells [2]): ≥ 5 µM
- concentrations at which HDAC10 is inhibited (NanoBRET) (HDAC10): above 150 nM
- IC50 (HDAC10; HeLa cells stably transfected with NanoLuc-HDAC10, 2 h): 564 nM
- concentrations inducing tubulin acetylation (HDAC6 [3]): ≥ 50 nM
- IC50 (HDAC6 [4]): 2.21 nM

Reference: paper PMC6030077, “Dual role of HDAC10 in lysosomal exocytosis and DNA repair promotes neuroblastoma chemoresistance” (Scientific Reports, 2018)
